Reference: patent US20110262490A1, “POLYMER-AGENT CONJUGATES, PARTICLES, COMPOSITIONS, AND RELATED METHODS OF USE” (priority 2009, published 2011)
Several values for one entry are separate records, joined by “and”; a condition that tells them apart may be missing. Equal values may be shown once. Read-outs that look alike come from different tables or passages of the source.

How the values were obtained:
B16.F10 tumor [1] = experiment: Efficacy and tolerability in mouse melanoma model B16.F10 (Example 58)
Procedure: B16.F10 cells were grown in culture to 85-90% confluency in MEM-alpha medium supplemented with 10% fetal bovine serum (FBS) and 1% penicillin/streptomycin. Cells were removed from the culture flask using 0.05% trypsin (passage=4), re-suspended in PBS (density=10×10^6 cells/mL) and were implanted subcutaneously (1×10^6 cells in 100 μL MEM-alpha medium/mouse) into the right flank of male C57BL/6 mice on day 1.
Body weight and tumor volume were measured three times a week. In addition, animals were also monitored for any morbidity and adverse effects three times a week.
Tumor volume was calculated with (width×width×length)/2 mm^3 formula. Efficacy was determined by tumor growth inhibition (TGI), tumor growth delay (TGD) and survival. Tumor growth inhibition (TGI) is represented as % and calculated as (1−(treated tumor volume/control tumor volume))×100 when the control group mean tumor volume reached ≧3000 mm^3. Tumor growth delay (TGD) is calculated by subtracting the day when the vehicle treated group reached the maximum tumor size 3000 mm^3 from the day when the treatment group tumor size reached 3000 mm^3. The criterion at which a mouse was removed from the study was tumor volume ≧3000 mm^3.

[2] = Tolerability in normal male C57BL/6 non-tumor-bearing mice (Example 47); type: in vivo, mouse; conditions: for Ataxia: n=5
Procedure: Treatments were administered intravenously on a q7dx2 schedule, i.e., two treatments seven days apart (the first treatment was on Day one). The study ended on Day 14, six days after the 2nd treatment. Blood was collected for complete blood count (CBC) and serum chemistry. Leg muscles were collected so that nerve degeneration could be assessed from the sciatic nerve.

SK-OV-3 tumor = experiment: In vivo efficacy in SK-OV-3 ovarian human xenograft model (Example 45); design: species or system mouse
Procedure: SK-OV-3 cells were grown in culture to confluency in RPMI medium containing 10% FBS and 1% penicillin/streptomycin and then resuspended in RPMI (passage 4) for implantation into mice. This suspension of SK-OV-3 cells (density=30×10^6 cells/mL) was implanted into the mammary gland of female CD-1 nude mice on Day 1. […]

B16.F10 tumor [3] = experiment: Efficacy and tolerability in mouse melanoma model B16.F10 (Example 61)
Procedure: Briefly, ATP and oxygen in viable cells reduce luciferin to oxyluciferin in the presence of luciferase to produce energy in the form of light. B16.F10 cells were grown in culture to 85-90% confluency in MEM-alpha medium supplemented with fetal bovine serum (FBS) and 1% penicillin/streptomycin. Cells were removed from the flask using 0.05% trypsin (passage=4), re-suspended in PBS (density=10×10^6 cells/mL) and were implanted subcutaneously (1×10^6 cells in 100 μL PBS/mouse) into the right flank of male C57BL/6 mice on day 1.
The treatments were administered IV into the tail vein at a dose volume of 10 ml/kg, beginning on post-implantation day 5, when the mean tumor volume was ca. 60 mm^3 Animals were monitored for any morbidity and adverse effects three times a week. In addition, body weight and tumor volume were also measured three times a week.
Tumor volume was calculated with (width×width×length)/2 mm^3 formula. Efficacy was determined by tumor growth inhibition (TGI), tumor growth delay (TGD) and survival. Tumor growth inhibition (TGI) is represented as % and calculated as (1−(treated tumor volume/control tumor volume))×100 when the control group mean tumor volume reached ≧3000 mm^3 Tumor growth delay (TGD) is calculated by subtracting the day when the vehicle treated group reached the maximum tumor size 3000 mm^3 from the day when the treatment group tumor size reached 3000 mm^3. The criterion at which a mouse was removed from the study was tumor volume ≧3000 mm^3.

murine melanoma tumor = experiment: Efficacy and survival in aggressive murine melanoma model at MTD (Example 92); type: in vivo, mouse; conditions: every other week dosing at MTD
Procedure: Thus, the sustained release properties of a particle according to exemplary particle 1 supports less frequent dosing of patients. Methods: Tumor-bearing mice were injected with a particle according to exemplary particle 1 or docetaxel at their respective MTD. See, for example, FIGS. 6a and 6b.

MDA-MB-435 tumor [4] = experiment: MDA-MB-435 breast xenograft model, delayed treatment (Example 93); type: in vivo, mouse
From the text: See, for example, FIG. 7.

H1299 tumor = experiment: Efficacy and tolerability in non-small cell lung carcinoma model H1299 (Example 60); conditions: for Tumor growth inhibition (% TGI): 30 mg/kg IV 1/wk×2, 30 mg/kg
Procedure: H1299 cells were grown in culture to 85-90% confluency in RPMI medium supplemented with 10% fetal bovine serum (FBS), 1% glutamine and 1% penicillin/streptomycin. Cells were removed from the culture flask using 0.05% trypsin (passage=4), re-suspended in RPMI medium (density=50×10^6 cells/mL) and were implanted subcutaneously (5×10^6 cells in 100 μL RPMI medium/mouse) into the mammary fat pad area of male nu/nu mice on day 1.
The treatments were administered IV into the tail vein at a dose volume of 10 and 20 mL/kg for 30 and 60 mg/kg respectively, beginning on post-implantation day 30 when the mean tumor volume was ca. 170 mm^3 (small tumor group), and on day 37 when the mean tumor volume was ca. 440 mm^3 (large tumor group). Body weight and tumor volume were measured for three times a week during the dosing period and twice a week thereafter. In addition, animals were also monitored for any morbidity and adverse effects for three times a week during the dosing period and twice a week thereafter.
Tumor volume was calculated with (width×width×length)/2 mm^3 formula. Efficacy was determined by tumor growth inhibition (TGI), tumor growth delay (TGD) and survival. Tumor growth inhibition (TGI) is represented as % and calculated as (1−(treated tumor volume/control tumor volume))×100 when the control group mean tumor volume reached ≧1000 mm^3 Tumor growth delay (TGD) is calculated by subtracting the day when the vehicle treated group reached the maximum tumor size 1000 mm^3 from the day when the treatment group tumor size reached 1000 mm^3.

MDA-MB-435 tumor [5] = experiment: In vivo efficacy in MDA-MB-435 melanoma human xenograft model (Example 46); design: species or system mouse
Procedure: MDA-MB-435 cells were grown in culture to confluency in RPMI medium containing 10% FBS and 1% penicillin/streptomycin and then resuspended in RPMI (passage 4) for implantation into mice. A volume of 0.1 mL containing 4.0×10^6 cells MDA-MB-435 cells were implanted into the mammary gland of female CD-1 nude mice on Day 1.

[6] = 30 mg/kg IV 1/wk×3, listed as free docetaxel
[7] = 30 mg/kg IV 1/biwk×3, listed as free docetaxel
[8] = large tumor group, 30 mg/kg 1/wk×2
[9] = large tumor group, 60 mg/kg 1/wk×2
[10] = small tumor group, 30 mg/kg 1/wk×2
[11] = small tumor group, 60 mg/kg 1/wk×2

Procedure for ADR-RES tumor: ADR-RES cells were grown in culture to 85-90% confluency in RPMI medium supplemented with 10% fetal bovine serum (FBS), 1% glutamine and 1% penicillin/streptomycin.
The treatments were administered IV into the tail vein at a dose volume of 10 and 20 mL/kg for 30 and 60 mg/kg respectively, beginning on post-implantation day 47, when the mean tumor volume was ca. 150 mm^3. Body weight and tumor volume were measured for three times a week during the dosing period and twice a week thereafter. In addition, animals were also monitored for any morbidity and adverse effects for three times a week during the dosing period and twice a week thereafter.
Tumor volume was calculated with (width×width×length)/2 mm^3 formula. Efficacy was determined by tumor growth inhibition (TGI), tumor growth delay (TGD) and survival. Tumor growth inhibition (TGI) is represented as % and calculated as (1−(treated tumor volume/control tumor volume))×100 when the control group mean tumor volume reached ≧1000 mm^3. Tumor growth delay (TGD) is calculated by subtracting the day when the vehicle treated group reached the maximum tumor size 1000 mm^3 from the day when the treatment group tumor size reached 1000 mm^3.

## CC(=O)O[C@@]12CO[C@@H]1C[C@H](O)[C@@]1(C)C(=O)[C@H](O)C3=C(C)[C@@H](OC(=O)[C@H](O)[C@@H](NC(=O)OC(C)(C)C)c4ccccc4)C[C@@](O)([C@@H](OC(=O)c4ccccc4)[C@H]21)C3(C)C [Free docetaxel, docetaxel]
B16.F10 tumor [1]; 30 mg/kg 1/wk×3
  Day of 0% survival: 45 days
  Day of 50% survival: 40 days
B16.F10 tumor [1]; 30 mg/kg IV 1/wk×3
  Day mean tumor volume endpoint (≧3000 mm^3) reached: 43 days
  Increase in TGD: 115%
  Maximum body weight loss: 12%
  Tumor growth delay (TGD): 23 days
  Tumor growth inhibition (% TGI): 92%
B16.F10 tumor [1]; [6]
  Maximum body weight loss: did not cause any significant body weight loss
  Tumor growth inhibition (% TGI): 92%
[2]; 30 mg/kg IV q7dx2
  Body weight above initial on Day 14: 3%
[2]; 30 mg/kg q7dx2
  Mice developing ataxia: no mice
  Ataxia: 0%
[2]; 30 mg/kg q7dx2, Day 14
  Lymphocyte mean: 4350 cells/μL
  Neutrophil mean: 556 cells/μL
  WBC # mean: 5.1 ×1000 cells/μL
[2]; 45 mg/kg IV q7dx2
  Body weight above initial on Day 14: 2%
[2]; 45 mg/kg q7dx2, Day 14
  Lymphocyte mean: 6780 cells/μL
  Mice developing ataxia: One mouse
  Neutrophil mean: 752 cells/μL
  WBC # mean: 7.8 ×1000 cells/μL
[2]; 45 mg/kg q7dx2
  Ataxia: 20%
[2]; 60 mg/kg IV q7dx2, Day 14
  Weight loss after second treatment, by end of study: 19%
[2]; 60 mg/kg q7dx2
  Mice developing ataxia: Five out of five mice
  Ataxia: 100%
[2]; 60 mg/kg q7dx2, Day 14
  Lymphocyte mean: 5590 cells/μL
  Neutrophil mean: 470 cells/μL
  WBC # mean: 6.2 ×1000 cells/μL
[2]; q7dx2
  Effect on serum chemistry parameters: did not affect any serum chemistry parameter at doses up to 60 mg/kg
ADR-RES tumor; 30 mg/kg IV 1/biwk×3
  Day mean tumor volume endpoint (≧1000 mm^3) reached: 99 days
  Day of 50% survival: 102 days
  Hind limb paralysis: did not cause any significant body weight loss (<10%) or hind limb paralysis
  Increase in TGD: 0%
  Maximum body weight loss: 9%
  Tumor growth delay (TGD): 0 days
  Tumor growth inhibition (% TGI): 0%
ADR-RES tumor; [7]
  Tumor growth delay (TGD): no TGD
  Tumor growth inhibition (% TGI): 0%
ADR-RES tumor; 30 mg/kg IV 1/wk×2
  Day mean tumor volume endpoint (≧1000 mm^3) reached: 109 days
  Day of 50% survival: 106 days
  Hind limb paralysis: did not cause any significant body weight loss (<10%) or hind limb paralysis
  Increase in TGD: 13%
  Maximum body weight loss: 6%
  Tumor growth delay (TGD): 7 days
  Tumor growth inhibition (% TGI): 23%
ADR-RES tumor; 30 mg/kg IV 1/wk×2, listed as free docetaxel
  Tumor growth inhibition (% TGI): 23%
ADR-RES tumor; 60 mg/kg IV 1/biwk×3
  Hind limb paralysis: severe hind limb paralysis
  Maximum body weight loss: 21%
ADR-RES tumor; 60 mg/kg IV 1/wk×2
  Day mean tumor volume endpoint (≧1000 mm^3) reached: 106 days
  Day of 50% survival: 106 days
  Hind limb paralysis: hind limb paralysis after the 2nd injection followed by recovery
  Increase in TGD: 7%
  Maximum body weight loss: 23%
  Tumor growth delay (TGD): 4 days
  Tumor growth inhibition (% TGI): 14%
ADR-RES tumor; 60 mg/kg IV 1/wk×2, listed as free docetaxel
  Tumor growth inhibition (% TGI): 14%
SK-OV-3 tumor; 15 mg/kg IV weekly×2
  Tumor growth delay (TGD): 18 days
SK-OV-3 tumor; 30 mg/kg IV weekly×2
  Ataxia: did not cause ataxia
  Maximum body weight loss: 13%
  Tumor growth delay (TGD): 42 days
SK-OV-3 tumor; 60 mg/kg IV weekly×2
  Body weight loss: greater than 20%
B16.F10 tumor [3]; 15 mg/kg IV 1/wk×3
  Day mean tumor volume endpoint (≧3000 mm^3) reached: 29 days
  Day of 0% survival: 43 days
  Day of 50% survival: 29 days
  Increase in TGD: 45%
  Maximum body weight loss: 2%
  Tumor growth delay (TGD): 9 days
  Tumor growth inhibition (% TGI): 75%
B16.F10 tumor [3]; 15 mg/kg IV 1/wk×3, listed as free docetaxel
  Tumor growth inhibition (% TGI): 75%
B16.F10 tumor [3]; 30 mg/kg IV 1/wk×3
  Maximum body weight loss: 12% and 14%
  Tumor growth delay (TGD): 23 days and 18 days
  Tumor growth inhibition (% TGI): 92% and 81%
B16.F10 tumor [3]; [6]
  Day mean tumor volume endpoint (≧3000 mm^3) reached: 43 days and 38 days
  Day of 0% survival: 45 days and 43 days
  Day of 50% survival: 40 days and 36 days
  Increase in TGD: 115% and 90%
  Tumor growth delay (TGD): 23 days and 18 days
  Tumor growth inhibition (% TGI): 92% and 81%
Murine melanoma tumor
  Tumor growth suppression: not sufficient to suppress tumor growth
MDA-MB-435 tumor [4]
  Effect on tumors allowed to grow to 500 mm^3: unable to suppress tumor growth over this time period
H1299 tumor; [8]
  Day mean tumor volume endpoint (≧1000 mm^3) reached: 63 days
  Day of 0% survival: 80 days
  Day of 50% survival: 61 days
  Hind limb paralysis: did not cause any significant body weight loss or hind limb paralysis
  Increase in TGD: 43%
  Maximum body weight loss: 19%
  Tumor growth delay (TGD): 19 days
  Tumor shrinkage: no tumor shrinkage
H1299 tumor; large tumor group
  Tumor growth inhibition (% TGI): 49%
H1299 tumor; large tumor group, listed as free docetaxel
  Tumor growth inhibition (% TGI): 49%
H1299 tumor; [9]
  Hind limb paralysis: severe hind limb paralysis
  Maximum body weight loss: significant body weight loss
H1299 tumor; [10]
  Day mean tumor volume endpoint (≧1000 mm^3) reached: 61 days
  Day of 0% survival: 68 days
  Day of 50% survival: 56 days
  Hind limb paralysis: did not cause any significant body weight loss or hind limb paralysis
  Increase in TGD: 39%
  Maximum body weight loss: 18%
  Tumor growth delay (TGD): 17 days
H1299 tumor; small tumor group
  Tumor growth inhibition (% TGI): 64%
H1299 tumor; small tumor group, listed as free docetaxel
  Tumor growth inhibition (% TGI): 64%
H1299 tumor; [11]
  Hind limb paralysis: severe hind limb paralysis
  Maximum body weight loss: significant body weight loss
MDA-MB-435 tumor [5]; 15 mg/kg IV Days 21 and 28
  Maximum body weight loss: 10%
MDA-MB-435 tumor [5]; 30 mg/kg IV Days 21 and 28
  Maximum body weight loss: 14%
MDA-MB-435 tumor [5]; 30 mg/kg IV weekly×2
  Ataxia: did not cause ataxia
MDA-MB-435 tumor [5]; 60 mg/kg IV Days 21 and 28 (mean tumor 150 mm^3)
  Body weight loss: greater than 20%
MDA-MB-435 tumor [5]; 60 mg/kg IV weekly×2, listed as docetaxel
  Ataxia: developed ataxia
MDA-MB-435 tumor [5]; 60 mg/kg IV weekly×2, listed as free docetaxel
  Ataxia: Ataxia was observed four days after the second treatment
